Experiments:
[1] = test system: THP-1 cells; assay: In vitro immunogenicity cytokine release assay (ELISA); assay type: cell-based, human; conditions: THP-1, 24 h incubation
Experimental: The immunogenicity of NKsomes in THP-1 cells were tested for its inflammatory response using a cytokine release assay. In brief, 7.5×10^5 THP-1 cells were seeded in 12-well plate and treated with isolated NKM (100 μg/mL), NKsomes (100 μg/mL), Free DOX (5 μg/mL), DOX@NKsomes (equivalent DOX load) and Bare liposomes (100 μg/mL) for 24 h incubation. Positive (LPS, 3 μg/mL) and negative controls were maintained for assessing pro-inflammatory cytokines in THP-1 cells. The treated cell culture supernatants were collected, centrifuged to remove cell debris, aliquot and stored at −20° C. until needed. Samples were thawed and used for analyzing pro-inflammatory cytokines, IL-1β (0.8 pg/ml), IL-6 (0.4 pg/mL) and TNF-α (0.7 pg/mL) using quantitative enzyme-linked immunosorbent assay KIT (ELISA) (R&D Systems, Inc. Minneapolis, MN) as recommended by the manufacturer. Sample […] was measured at 450 nm with the wavelength correction at 540 nm using Synergy H1 hybrid microplate reader (BioTek Instruments Inc. VT).

[2] = test system: MCF-7 cells; assay: MTT assay; assay type: cell-based, human; conditions: MCF-7, DOX 0.5-15 μM, 24 h
Experimental: (§1) For MTT analysis, MCF-7 cells and NHost cells were treated with NKsomes with different DOX concentration along with free DOX and bare NKsomes. In brief, 2×10^4 cells per well in the respective medium were seeded in a 96-well plate and incubated for 24 h. While the cell reaches 80% confluence, the media was replaced with different DOX concentration of free DOX and NKsomes (0.5, 1.5, 3, 5, 10 and 15 uM) and incubated for additional 24 h. Control cells were maintained without DOX treatment. After incubation, MTT dye was added according to the manual instruction and further incubated for 3 h. The insoluble formation crystals were solubilized using DMSO, and the absorbance was read at 590 and 630 nm using microplate reader (BioTek, Synergy H1 Hybrid reader).

[3] = test system: NHost cells; assay: MTT assay; assay type: cell-based, human; conditions: DOX 0.5-15 μM, 24 h
Experimental: as §1

[4] = test system: MCF-7 cells; assay: Cell cycle analysis (propidium iodide, FACS); assay type: cell-based, human; conditions: MCF-7, DOX 5 μM, 12 h
Experimental: (§2) The in vitro cytotoxicity of DOX@NKsome and the equivalent Free DOX were investigated against MCF-7 cells and NHost using a cell cycle analysis and an MTT assay. For cell cycle analysis, 1×10^6 cells were treated with 5 μM of Free DOX, equivalent DOX@NKsomes and bare NKsomes (equivalent to DOX-loaded) for 12 h. After incubation, cells were harvested, fixed in 70% ethanol overnight, washed with PBS twice and then followed propidium iodide staining. Further, the samples were analyzed in FACS Calibur for cell cycle analysis.

[5] = test system: NHost; assay: Cell cycle analysis (propidium iodide, FACS); assay type: cell-based, human; conditions: DOX 5 μM, 12 h
Experimental: as §2

[6] = test system: MCF-7 induced solid tumor model; assay: In vivo anti-tumor therapy; parameters: species or system NU/NU nude mice
Experimental: The anti-tumor efficacy of DOX@NKsomes was determined along with free DOX and unloaded NKsomes (aka “empty” NKsomes) using MCF-7 induced solid tumor model in immunodeficient NU/NU nude mice (n=3). In brief, 1×10^6 MCF-7 cells in PBS was injected subcutaneously into the hind rear flank region of the mice and the tumor growth is monitored periodically. When the tumor size reached 4-5 mm, animals received 4 cycles of drug treatment at Day 1, 4, 7 and 10 [DOX@NKsomes and free DOX (equivalent DOX concentration of 5 mg/kg)] up to 3 weeks. Control groups were also maintained without any treatment and bare NKsomes (10 mg/kg). During the study, body weight and tumor volume of the animal groups were monitored periodically to assess the therapeutic effects. The tumor volume (V) was determined using V=L×W2/2, where L=length of the tumor and W=width of the tumor. At the end of the study, animals were euthanized, collected tumors and measured its size and weight. Further, the tumor tissues were embedded in OCT, cryosectioned and subjected to immunofluorescence for the qualitative accumulation of NKsomes in tumor tissues by assessing the NKM protein marker (CD 56).

[7] = test system: THP-1 cells; assay: In vitro cytokine release assay of BNc; assay type: cell-based, human; conditions: THP-1, 100 μg/mL (LPS 3 μg/mL), 24 h
Experimental: The immunogenicity of the prepared BNc along with the bare PLGA NP were tested for its immunoregulatory potential using standard cytokine release assay. In brief, 8×10^5 THP-1 cells were seeded in a 12-well plate and treated with bare PLGA NP (100 μg/mL), NKM (100 μg/mL), Gd-lipid (100 μg/mL) and BNc (100 μg/mL) at 37° C. for 24 h. After 24 h incubation, cell culture supernatants were collected, centrifuged, removed cell debris and stored at −20° C. as small aliquots. For cytokine assay, samples were thawed and analyzed for pro-inflammatory cytokines, IL-1β (LOD: 1.7 pg/ml), IL-6 (LOD: 1.5 pg/mL), and TNF-α (LOD: 1 pg/mL) using Magnetic Human Cytokine Multiplex Assays Kit (R&D Systems, Inc. Minneapolis, MN) in Luminex MagPix® instrument (Millipore Inc.) as per the manufacturer recommendations. For positive control, cells were dosed with 3 μg/mL of lipopolysaccharide (LPS) for 24 h.

Compound	immunogenicity (pro-inflammatory cytokines) [1]	in vitro cytotoxicity (MTT) [2]	in vitro cytotoxicity (MTT) [3]	G1 fraction [4]	G2 fraction [4]	G1 fraction [5]	G2 fraction [5]	tumor inhibition rate (IR %) ([6]; DOX 5 mg/kg or bare NKsomes 10 mg/kg, Day 1, 4, 7, 10, from tumor weight)	average tumor weight ([6]; end of study)	tumor volume change ([6]; end of treatment period)	immunogenicity (IL-1β, IL-6, TNF-α release) [7]
COc1cccc2c1C(=O)c1c(O)c3c(c(O)c1C2=O)C[C@@](O)(C(=O)CO)C[C@@H]3O[C@H]1C[C@H](N)[C@H](O)[C@H](C)O1 [Free DOX, doxorubicin]	little elevation of IL-10 and TNF-α levels	Dose-dependent cytotoxicity	superior toxicity	53%	25%	53.3%	23.6%	63.69%	0.3 ± 0.04 g	significant reduction in tumor volume	–
lipopolysaccharide [LPS]	–	–	–	–	–	–	–	–	–	–	elevated levels of IL-1β, IL-6, and TNF-α

Source: patent US12514935B2, “Nanocarrier systems for imaging and delivery of active agents” (Kansas State University Research Foundation, priority 2018, dated 2026)
